System: human sperm
Assay: Test for evaluation of the promoting effect on the induction of sperm acrosomal reaction (FITC-concanavalin A fluorescence staining)
Assay type: cell-based
Conditions: for acrosomal reaction induction rate (%): incubation time 3; for induction of acrosomal reaction: human sperm, summary in words
Description: Percoll for sperm washing was isotonized and adjusted to 90% with 20 mM Hepes buffered Hanks solution (pH 7.4; supplemented with 1.0 mg/ml BSA). The ejaculated human seminal fluid was allowed to liquefy at room temperature, diluted 2-fold with Hanks solution, and layered on 6.0 ml Percoll. In the Percoll layer, a glass capillary had been inserted in advance. The system was centrifuged at 1000×g for 30 minutes to precipitate motile sperm. The precipitated sperm was aspirated through the capillary and recovered. The sperm was resuspended in Hanks solution at a final concentration of about 50×10^6/ml and cultured at 37° C.
The human sperm acrosomal reaction was monitored by a fluorescence staining technique using FITC-concanavalin A.
As the acrosomal cap splits off on acrosomal reaction, the membrane protein rich in the high-mannose sugar chain on the acrosomal tunica intima becomes exposed. Therefore, the sperm showing a yellow fluorescence in the anterior half of the head was regarded as acrosomal reaction-induced sperm.
Compound A was added to the sperm suspension at a final concentration of 10^−6 or 10^−7 M. Observation was made in the group supplemented with 1 I.U./ml of adenosine deaminase and the non-enzyme-addition group.
Compounds B and C were respectively added to the sperm suspension at a final concentration of 10^−7 M. Observation was made in the groups supplemented with 1 I.U./ml of adenosine deaminase.
Each figure denotes the acrosomal reaction induction rate (%) (the mean±S.E. of 3 observations in Table 1; the mean±S.E. of 5 observations in Tables 2 and 3). In Table 1, the figure in the top row represents the result obtained in the absence of adenosine deaminase and the figures in the bottom row represent the results in the presence of adenosine deaminase.

| Structure (SMILES) | acrosomal reaction induction rate (%) (Compound C 10^−7 M, supplemented with 1 I.U./ml adenosine deaminase, mean±S.E. of 5 observations) | induction of acrosomal reaction | acrosomal reaction induction rate (%) (Compound A 10^−6 M, absence of adenosine deaminase, mean±S.E. of 3 observations) | acrosomal reaction induction rate (%) (Compound A 10^−6 M, presence of adenosine deaminase 1 I.U./ml, mean±S.E. of 3 observations) | acrosomal reaction induction rate (%) (Compound A 10^−7 M, absence of adenosine deaminase, mean±S.E. of 3 observations) | acrosomal reaction induction rate (%) (Compound A 10^−7 M, presence of adenosine deaminase 1 I.U./ml, mean±S.E. of 3 observations) | acrosomal reaction induction rate (%) (Compound B 10^−7 M, supplemented with 1 I.U./ml adenosine deaminase, mean±S.E. of 5 observations) |
| --- | --- | --- | --- | --- | --- | --- | --- |
| O=C(O)CC1=C(n2nc(-c3c(-c4ccccc4)nn4ccccc34)ccc2=O)CCCC1 [Compound C, 3-[2-(2-Carboxymethyl-1-cyclohexenyl)-3-oxo-2,3-dihydropyridazin-6-yl]-2-phenylpyrazolo[1,5-a]pyridine] | 48.86 ± 2.57% | promoted |  |  |  |  |  |
| O=C(O)CCCn1nc(-c2c(-c3ccccc3)nn3ccccc23)ccc1=O [Compound A, 3-[2-(3-Carboxypropyl)-3-oxo-2,3-dihydropyridazin-6-yl]-2-phenylpyrazolo[1,5-a]pyridine] |  | promoted | 43.7 ± 2.77% | 63.6 ± 1.84% | 47.1 ± 2.37% | 64.1 ± 1.73% |  |
| O=C(O)C[C@H]1CCCCN1C(=O)C=Cc1c(-c2ccccc2)nn2ccccc12 (single isomer, unassigned) [Compound B] |  | promoted |  |  |  |  | 41.26 ± 2.18% |

Source: patent US6521656B1, “Remedies for male sterility” (Fujisawa Pharmaceutical Co., Ltd., priority 1998, dated 2003)
